pKd: −log10 of the molar value.
How the values were obtained:
[1] = biological target: GDP-bound KRAS wild-type protein (Homo sapiens, UniProt P01116); experiment: Binding to KRAS by surface plasmon resonance (SPR), Single Cycle Kinetics; conditions: SPR, Single Cycle Kinetics, 1:1 binding model; GDP-bound KRAS wild-type protein; read-out: KRAS KD
[2] = biological target: GDP-bound NRAS wild-type protein (Homo sapiens, UniProt P01111); experiment: Binding to NRAS by surface plasmon resonance (SPR), Single Cycle Kinetics; conditions: SPR; GDP-bound NRAS wild-type protein vs GDP-bound KRAS wild-type protein; KD ratio class
Chain of GDP-bound NRAS wild-type protein (P01111 whole entry): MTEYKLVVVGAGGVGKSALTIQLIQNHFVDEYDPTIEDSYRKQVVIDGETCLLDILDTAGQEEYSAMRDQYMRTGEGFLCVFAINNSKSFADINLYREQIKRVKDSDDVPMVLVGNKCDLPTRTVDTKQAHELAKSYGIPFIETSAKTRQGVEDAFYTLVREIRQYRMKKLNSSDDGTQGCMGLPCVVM

[3] = biological target: GDP-bound HRAS wild-type protein (Homo sapiens, UniProt P01112); experiment: Binding to HRAS by surface plasmon resonance (SPR), Single Cycle Kinetics; conditions: SPR; GDP-bound HRAS wild-type protein vs GDP-bound KRAS wild-type protein; KD ratio class
Chain of GDP-bound HRAS wild-type protein (P01112 whole entry): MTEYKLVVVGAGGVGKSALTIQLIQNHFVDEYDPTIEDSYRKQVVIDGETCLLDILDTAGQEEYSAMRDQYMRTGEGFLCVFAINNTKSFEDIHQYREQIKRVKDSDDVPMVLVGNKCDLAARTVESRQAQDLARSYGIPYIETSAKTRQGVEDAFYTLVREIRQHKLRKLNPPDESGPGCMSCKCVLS

Chain of GDP-bound KRAS wild-type protein (P01116 whole entry): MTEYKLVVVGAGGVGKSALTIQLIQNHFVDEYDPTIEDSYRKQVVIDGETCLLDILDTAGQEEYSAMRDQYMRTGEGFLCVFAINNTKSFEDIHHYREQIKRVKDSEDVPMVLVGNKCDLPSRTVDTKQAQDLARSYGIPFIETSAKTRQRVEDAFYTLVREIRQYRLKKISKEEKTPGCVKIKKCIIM

Compound	pKd [1]	NRAS/KRAS (ratio of KD value for NRAS to KD value for KRAS) [2]	HRAS/KRAS (ratio of KD value for HRAS to KD value for KRAS) [3]
CC[C@H](C)[C@@H]1NC(=O)[C@H](CC2CC2)N(C)C(=O)C[C@@H](C(=O)N(C)C)N(C)C(=O)[C@H](C2CCCC2)N(C)C(=O)C2(CC(C)(C)C2)NC(=O)[C@@H]2C[C@@H](C(F)(F)F)CN2C(=O)[C@H](CCc2cc(F)c(C(F)(F)F)c(F)c2)NC(=O)CN(C)C(=O)[C@H](Cc2ccc(C(F)(F)F)cc2)N2CC/C=C\C[C@@H](C2=O)N(C)C(=O)CN(C)C1=O [PP1504]	9.49	A (a compound having 10 or more and less than 20 is denoted as A)	A (a compound having 10 or more and less than 20 is denoted as A)
CC[C@H](C)[C@@H]1NC(=O)[C@H](CC2CC2)N(C)C(=O)C[C@@H](C(=O)N2CCCC2)N(C)C(=O)[C@H](C2CCCC2)N(C)C(=O)C2(CCCC2)NC(=O)[C@@H]2C[C@@H](C(F)(F)F)CN2C(=O)[C@H](CCc2cc(F)c(C(F)(F)F)c(F)c2)NC(=O)CN(C)C(=O)[C@H](Cc2ccc(C(F)(F)F)cc2)N2CC/C=C\C[C@@H](C2=O)N(C)C(=O)CN(C)C1=O [PP1506]	9.47	AA (a compound having 20 or more is denoted as AA)	A (a compound having 10 or more and less than 20 is denoted as A)
CC[C@H](C)[C@@H]1NC(=O)[C@H](CC2CC2)N(C)C(=O)C[C@@H](C(=O)N(C)C)N(C)C(=O)[C@H](C2CCCC2)N(C)C(=O)C2(CC(C)(C)C2)NC(=O)[C@@H]2C[C@@H](C(F)(F)F)CN2C(=O)[C@H](CCc2cc(F)c(C(F)(F)F)c(F)c2)NC(=O)CN(C)C(=O)[C@H](Cc2ccc(F)cc2)N2CC/C=C\C[C@@H](C2=O)N(C)C(=O)CN(C)C1=O [PP1507]	9.77	A (a compound having 10 or more and less than 20 is denoted as A)	A (a compound having 10 or more and less than 20 is denoted as A)
CCO[C@@H]1C[C@H]2C(=O)NC3(CCC3)C(=O)N(C)[C@@H](C(CC)CC)C(=O)N(C)[C@H](C(=O)N(C)C)CC(=O)N(C)[C@@H](CC3CCCC3)C(=O)N[C@@H]([C@@H](C)CC)C(=O)N(C)CC(=O)N(C)[C@H]3C/C=C\CCN(C3=O)[C@@H](Cc3ccc(F)cc3C)C(=O)N(C)CC(=O)N[C@@H](CCc3cc(F)c(C(F)(F)F)c(F)c3)C(=O)N2C1 [PP1516]	9.01	A (a compound having 10 or more and less than 20 is denoted as A)	B (a compound having 3 or more and less than 10 is denoted as B)
CCO[C@@H]1C[C@H]2C(=O)NC3(CCC3)C(=O)N(C)[C@@H](C(CC)CC)C(=O)N(C)[C@H](C(=O)N(C)C)CC(=O)N(C)[C@@H](CC3CCCC3)C(=O)N[C@@H]([C@@H](C)CC)C(=O)N(C)CC(=O)N(C)[C@H]3C/C=C\CCN(C3=O)[C@@H](Cc3ccc(F)cc3)C(=O)N(C)CC(=O)N[C@@H](CCc3cc(F)c(C(F)(F)F)c(F)c3)C(=O)N2C1 [PP1517]	9.37	A (a compound having 10 or more and less than 20 is denoted as A)	A (a compound having 10 or more and less than 20 is denoted as A)
CCO[C@@H]1C[C@H]2C(=O)NC3(CCC3)C(=O)N(C)[C@@H](C(CC)CC)C(=O)N(C)[C@H](C(=O)N(C)C)CC(=O)N(C)[C@@H](CC(C)C)C(=O)N[C@@H]([C@@H](C)CC)C(=O)N(C)CC(=O)N(C)[C@H]3C/C=C\CCN(C3=O)[C@@H](Cc3ccc(F)cc3C)C(=O)N(C)CC(=O)N[C@@H](CCc3cc(F)c(C(F)(F)F)c(F)c3)C(=O)N2C1 [PP1518]	9.24	A (a compound having 10 or more and less than 20 is denoted as A)	B (a compound having 3 or more and less than 10 is denoted as B)
CCO[C@@H]1C[C@H]2C(=O)NC3(CCC3)C(=O)N(C)[C@@H](C(CC)CC)C(=O)N(C)[C@H](C(=O)N(C)C)CC(=O)N(C)[C@@H](CC(C)C)C(=O)N[C@@H]([C@@H](C)CC)C(=O)N(C)CC(=O)N(C)[C@H]3C/C=C\CCN(C3=O)[C@@H](Cc3ccc(F)cc3)C(=O)N(C)CC(=O)N[C@@H](CCc3cc(F)c(C(F)(F)F)c(F)c3)C(=O)N2C1 [PP1519]	9.39	A (a compound having 10 or more and less than 20 is denoted as A)	A (a compound having 10 or more and less than 20 is denoted as A)
CCO[C@@H]1C[C@H]2C(=O)NC3(CCC3)C(=O)N(C)[C@@H](C(CC)CC)C(=O)N(C)[C@H](C)CC(=O)N(C)[C@@H](CC3CC3)C(=O)N[C@@H]([C@@H](C)CC)C(=O)N(C)CC(=O)N(C)[C@H]3C/C=C\CCN(C3=O)[C@@H](Cc3ccc(F)cc3)C(=O)N(C)CC(=O)N[C@@H](CCc3cc(F)c(C(F)(F)F)c(F)c3)C(=O)N2C1 [PP1521]	8.59	A (a compound having 10 or more and less than 20 is denoted as A)	B (a compound having 3 or more and less than 10 is denoted as B)

Stronger by pKd [1], values ahead:

pKd [1]	Compound	NRAS/KRAS (ratio of KD value for NRAS to KD value for KRAS) [2]	HRAS/KRAS (ratio of KD value for HRAS to KD value for KRAS) [3]
9.96	CC[C@H](C)[C@@H]1NC(=O)[C@H](CC2CC2)N(C)C(=O)C[C@@H](C(=O)N2CCCC2)N(C)C(=O)[C@H](C2CCCC2)N(C)C(=O)C2(CCC2)NC(=O)[C@@H]2C[C@H](C)CN2C(=O)[C@H](CCc2cc(F)c(C(F)(F)F)c(F)c2)NC(=O)CN(C)C(=O)[C@H](Cc2ccc(C(F)(F)F)cc2)N2CC/C=C\C[C@@H](C2=O)N(C)C(=O)CN(C)C1=O [PP1510, (2S,8S,12S,14S,20S,23S,27S,30S,36S,38Z)-20-cyclopentyl-27-(cyclopropylmethyl)-8-[2-[3,5-difluoro-4-(trifluoromethyl)phenyl]ethyl]-4,12,19,22,26,32,35-heptamethyl-30-[(1S)-1-methylpropyl]-23-(pyrrolidine-1-carbonyl)-2-[[4-(trifluoromethyl)phenyl]methyl]spiro[1,4,7,10,16,19,22,26,29,32,35-undecazatricyclo[34.5.1.0^10,14]dotetracont-38-ene-17,1′-cyclobutane]-3,6,9,15,18,21,25,28,31,34,42-undecone]	AA (a compound having 20 or more is denoted as AA)	A (a compound having 10 or more and less than 20 is denoted as A)
10.00	CC[C@H](C)[C@@H]1NC(=O)[C@H](CC2CC2)N(C)C(=O)C[C@@H](C(=O)N(C)C)N(C)C(=O)[C@H](C2CCCC2)N(C)C(=O)C2(CCCC2)NC(=O)[C@@H]2C[C@H](C)CN2C(=O)[C@H](CCc2cc(F)c(C(F)(F)F)c(F)c2)NC(=O)CN(C)C(=O)[C@H](Cc2ccc(C(F)(F)F)cc2)N2CC/C=C\C[C@@H](C2=O)N(C)C(=O)CN(C)C1=O [PP1511, (2S,8S,12S,14S,20S,23S,27S,30S,36S,38Z)-20-cyclopentyl-27-(cyclopropylmethyl)-8-[2-[3,5-difluoro-4-(trifluoromethyl)phenyl]ethyl]-N,N,4,12,19,22,26,32,35-nonamethyl-30-[(1S)-1-methylpropyl]-3,6,9,15,18,21,25,28,31,34,42-undecaoxo-2-[[4-(trifluoromethyl)phenyl]methyl]spiro[1,4,7,10,16,19,22,26,29,32,35-undecazatricyclo[34.5.1.0^10,14]dotetracont-38-ene-17,1′-cyclopentane]-23-carboxamide]	AA (a compound having 20 or more is denoted as AA)	A (a compound having 10 or more and less than 20 is denoted as A)
10.04	CC[C@H](C)[C@@H]1NC(=O)[C@H](CC2CCCC2)N(C)C(=O)C[C@@H](C(=O)N(C)C)N(C)C(=O)[C@H](C2CCCC2)N(C)C(=O)C2(CCC2)NC(=O)[C@@H]2C[C@@H](C(F)(F)F)CN2C(=O)[C@H](CCc2cc(F)c(C(F)(F)F)c(F)c2)NC(=O)CN(C)C(=O)[C@H](Cc2ccc(C(F)(F)F)cc2)N2CC/C=C\C[C@@H](C2=O)N(C)C(=O)CN(C)C1=O [PP1505]	A (a compound having 10 or more and less than 20 is denoted as A)	A (a compound having 10 or more and less than 20 is denoted as A)
10.08	CC[C@H](C)[C@@H]1NC(=O)[C@H](CC2CC2)N(C)C(=O)C[C@@H](C(=O)N2CCCC2)N(C)C(=O)[C@H](C2CCCC2)N(C)C(=O)C2(CCC2)NC(=O)[C@@H]2CC(F)(F)CN2C(=O)[C@H](CCc2cc(F)c(C(F)(F)F)c(F)c2)NC(=O)CN(C)C(=O)[C@H](Cc2ccc(C(F)(F)F)cc2)N2CC/C=C\C[C@@H](C2=O)N(C)C(=O)CN(C)C1=O [PP1512]	AA (a compound having 20 or more is denoted as AA)	A (a compound having 10 or more and less than 20 is denoted as A)
10.15	CC[C@H](C)[C@@H]1NC(=O)[C@H](CC2CC2)N(C)C(=O)C[C@@H](C(=O)N(C)C)N(C)C(=O)[C@H](C2CCCC2)N(C)C(=O)C2(CCCC2)NC(=O)[C@@H]2CC(F)(F)CN2C(=O)[C@H](CCc2cc(F)c(C(F)(F)F)c(F)c2)NC(=O)CN(C)C(=O)[C@H](Cc2ccc(C(F)(F)F)cc2)N2CC/C=C\C[C@@H](C2=O)N(C)C(=O)CN(C)C1=O [PP1513, (2S,8S,14S,20S,23S,27S,30S,36S,38Z)-20-cyclopentyl-27-(cyclopropylmethyl)-8-[2-[3,5-difluoro-4-(trifluoromethyl)phenyl]ethyl]-12,12-difluoro-N,N,4,19,22,26,32,35-octamethyl-30-[(1S)-1-methylpropyl]-3,6,9,15,18,21,25,28,31,34,42-undecaoxo-2-[[4-(trifluoromethyl)phenyl]methyl]spiro[1,4,7,10,16,19,22,26,29,32,35-undecazatricyclo[34.5.1.0^10,14]dotetracont-38-ene-17,1′-cyclopentane]-23-carboxamide]	A (a compound having 10 or more and less than 20 is denoted as A)	A (a compound having 10 or more and less than 20 is denoted as A)

— US20240158446A1, “CYCLIC COMPOUND HAVING SELECTIVE INHIBITORY ACTION ON KRAS OVER HRAS AND NRAS” (CHUGAI SEIYAKU KABUSHIKI KAISHA, priority 2021, published 2024)
